Data taken from US8288410B2, “3-substituted quinolinium and 7H-indolo[2,3-c]quinolinium salts as new antiinfectives” (Florida Agricultural and Mechanical University, priority 2008, dated 2012).
Structures can show the parent of a compound that is named as a salt. Where two headings read alike, the source gives them in different places.

Legend:
[1] = test system: Candida albicans ATTC 90028; assay: Antifungal susceptibility testing, Candida albicans; assay type: cell-based; conditions: for IC50: ATTC90028, Table 2, read-out: Ca IC50; for MFC: ATTC90028, Table 2, read-out: Ca MFC; for MIC: ATTC90028, Table 2, read-out: Ca MIC
Outline: (§1)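 Modified NCCLS broth microdilution, samples serially diluted from 20 μg/mL top concentration, inocula per 0.5 McFarland (C. albicans in SDB or RPMI 1640; C. neoformans in SDB; A. fumigatus in YM broth or RPMI-1640 + 5% Alamar Blue). IC50 from percent growth versus concentration; MIC read visually as lowest concentration without detectable growth.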

[2] = test system: Cryptococcus neoformans ATCC 90113; assay: Antifungal susceptibility testing, Cryptococcus neoformans; assay type: cell-based; conditions: for IC50: ATCC90113, Table 2, read-out: Cn IC50; for MFC: ATCC90113, Table 2, read-out: Cn MFC; for MIC: ATCC90113, Table 2, read-out: Cn MIC
Outline: as §1

[3] = test system: Aspergillus fumigatus ATCC 90906; assay: Antifungal susceptibility testing, Aspergillus fumigatus; assay type: cell-based; conditions: for IC50: ATCC90906, read-out: A fu IC50
Outline: as §1

MRSA = assay: Antibacterial susceptibility testing, MRSA; assay type: cell-based, methicillin resistant Staphylococcus aureus; conditions: for IC50 / MIC: Staphylococcus aureus; for IC50: Table 2, read-out: MRSA IC50; for MIC: Table 2, read-out: MRSA MIC
Outline: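 Each plate carried growth (saline only), solvent and blank (media only) controls, and Ciprofloxacin was the drug control. Plates were read before and after final incubation. MIC, the lowest concentration showing no detectable growth, was judged visually, and IC50 was obtained by plotting percent growth against concentration.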

Vero Cells = assay: Cytotoxicity, Vero cells; assay type: cell-based

SMILES | A fu MIC [3] | TC50 Vero Cells (Vero Cells; Table 2) | Ca IC50 ([1]; Table 2) | Ca MFC ([1]; Table 2) | Ca MIC ([1]; Table 2) | Cn IC50 ([2]; Table 2) | Cn MFC ([2]; Table 2) | Cn MIC ([2]; Table 2) | A fu MFC [3] | A fu IC50 ([3]; Table 2, Aspergillus fumigatus) | MRSA IC50 (MRSA; Table 2) | MRSA MFC (MRSA; Table 2) | MRSA MIC (MRSA; Table 2) | Ca IC50 ([1]; Table 3) | Ca MFC ([1]; Table 3) | Ca MIC ([1]; Table 3) | Cn IC50 ([2]; Table 3) | Cn MFC ([2]; Table 3) | Cn MIC ([2]; Table 3) | A fu IC50 ([3]; Table 3, Aspergillus fumigatus) | further results
Clc1ccc(Nc2cc3ccccc3[n+](CCCCCc3ccccc3)c2)cc1 [JRE-2-89-1] | 50 µg/mL | >25 µg/mL |  |  |  |  |  |  |  |  |  |  |  |  |  |  |  |  |  |  | IC50 [1]: 15 µg/mL; MFC [1]: > 20 µg/mL; MIC [1]: 50 µg/mL; IC50 [2]: 4 µg/mL; MFC [2]: 13 µg/mL; MIC [2]: 6.3 µg/mL; IC50 ([3]; Table 2, Aspergillus fumigatus): 10 µg/mL; IC50 (MRSA): 1.5 µg/mL; MIC (MRSA): 3.1 µg/mL; melting point: 182 to 183 °C
C[n+]1cc(N(CCCCCC2CCCCC2)c2ccc(Cl)cc2)cc2ccccc21.[I-] [JRE-4-9-1] | 1.3 µg/mL | 10 µg/mL | 0.45 µg/mL | 5.0 µg/mL | 1.3 µg/mL | 0.40 µg/mL | 2.5 µg/mL | 0.63 µg/mL | 10 µg/mL | 0.80 µg/mL | 0.40 µg/mL | 0.63 µg/mL | 0.63 µg/mL |  |  |  |  |  |  |  | 
COc1cccc(N(CCCCCC2CCCCC2)c2cc3ccccc3[n+](C)c2)c1.[I-] [JRE-3-69-1] | 1.3 µg/mL | >10 µg/mL | 0.85 µg/mL | 2.5 µg/mL | 2.5 µg/mL | 0.55 µg/mL | 5.0 µg/mL | 1.3 µg/mL | 10 µg/mL | 0.70 µg/mL | 0.50 µg/mL | 1.3 µg/mL | 1.3 µg/mL |  |  |  |  |  |  |  | 
c1ccc(Nc2cc3ccccc3[n+](CCCCCC3CCCCC3)c2)cc1 (as salt: iodide) [JRE-3-19-1] |  |  |  |  |  |  |  |  |  |  |  |  |  |  |  |  |  |  |  |  | melting point: 156 to 158 °C
FC(F)(F)c1ccccc1Sc1cc2ccccc2[n+](CCCCCc2ccccc2)c1.[I-] |  |  |  |  |  |  |  |  |  |  |  |  |  |  |  |  |  |  |  |  | melting point: 227 to 229 °C
C[n+]1cccc(N(CCCCCC2CCCCC2)c2ccc3ccccc3c2)c1 [EVK-III-002] | 1.6 µg/mL | 6.0 µg/mL |  |  |  |  |  |  | 6.3 µg/mL |  |  |  |  |  |  |  |  |  |  |  | IC50 [1]: 0.6 µg/mL; MFC [1]: 13 µg/mL; MIC [1]: 1.6 µg/mL; IC50 [2]: 0.85 µg/mL; MFC [2]: 1.6 µg/mL; MIC [2]: 1.6 µg/mL; IC50 ([3]; Table 2, Aspergillus fumigatus): 1 µg/mL; IC50 (MRSA): 0.45 µg/mL; MIC (MRSA): 0.78 µg/mL
C[n+]1cc(N(CCCCCC2CCCCC2)c2cccc(C(F)(F)F)c2)cc2ccccc21.[I-] [JRE-3-61-1] | 2.5 µg/mL | >10 µg/mL | 1.0 µg/mL | 2.5 µg/mL | 2.5 µg/mL | 0.85 µg/mL | 2.5 µg/mL | 1.3 µg/mL | 10 µg/mL | 1.5 µg/mL | 0.45 µg/mL | 1.3 µg/mL | 0.63 µg/mL |  |  |  |  |  |  |  | 
C[n+]1cc(N(CCCCCC2CCCCC2)c2ccc(C(F)(F)F)cc2)cc2ccccc21.[I-] [JRE-3-20-1] | 3.1 µg/mL | 25 µg/mL | 0.65 µg/mL | 3.1 µg/mL | 1.6 µg/mL | 0.65 µg/mL | 3.1 µg/mL | 1.6 µg/mL | 6.3 µg/mL | 1.0 µg/mL | 0.40 µg/mL | 1.6 µg/mL | 0.78 µg/mL |  |  |  |  |  |  |  | 
C[n+]1cc2c(c3ccccc3n2CCCCCC2CCCCC2)c2ccccc21.[I-] [JRE-3-100-1] | 5.0 µg/mL |  |  |  |  |  |  |  | 10 µg/mL |  |  |  |  | 0.80 µg/mL | 10 µg/mL | 2.5 µg/mL | 1.5 µg/mL | 5.0 µg/mL | 2.5 µg/mL | 3.5 µg/mL | MRSA IC50 (MRSA; Table 3): 0.70 µg/mL; MRSA MFC (MRSA; Table 3): 1.3 µg/mL; MRSA MIC (MRSA; Table 3): 1.3 µg/mL; TC50 Vero Cells (Vero Cells; Table 3): >10 µg/mL
FC(F)(F)c1ccc2[nH]c3c[n+](CCCCCC4CCCCC4)c4ccccc4c3c2c1.[I-] [JRE-3-4-1] |  |  |  |  |  |  |  |  |  |  |  |  |  | 2.0 µg/mL | 13 µg/mL | 6.3 µg/mL | 9.0 µg/mL | — ((-) = >20 μg/mL) | — ((-) = >20 μg/mL) | 10 µg/mL | MRSA IC50 (MRSA; Table 3): 1.0 µg/mL; MRSA MFC (MRSA; Table 3): 3.1 µg/mL; MRSA MIC (MRSA; Table 3): 1.6 µg/mL; TC50 Vero Cells (Vero Cells; Table 3): 10.5 µg/mL
C[n+]1cc(N(CCCCCC2CCCCC2)c2cccc(Cl)c2)cc2ccccc21.[I-] [JRE-4-3-1] | 2.5 µg/mL | >10 µg/mL | 0.90 µg/mL | 10 µg/mL | 2.5 µg/mL | 0.85 µg/mL | 5.0 µg/mL | 1.3 µg/mL | 10 µg/mL | 1.0 µg/mL | 0.80 µg/mL | 2.5 µg/mL | 1.3 µg/mL |  |  |  |  |  |  |  | 
FC(F)(F)c1cccc(Sc2cc3ccccc3[n+](CCCCCc3ccccc3)c2)c1.[I-] [XYZ-IV-54] |  |  |  |  |  |  |  |  |  |  |  |  |  |  |  |  |  |  |  |  | Ca IC50 ([1]; Table 1): 6.0 µg/mL; Ca MFC ([1]; Table 1): — ((-) = >20 μg/mL); Ca MIC ([1]; Table 1): 10 µg/mL; Cn IC50 ([2]; Table 1): 1.5 µg/mL; Cn MFC ([2]; Table 1): 20 µg/mL; Cn MIC ([2]; Table 1): 2.5 µg/mL; A fu IC50 ([3]; Table 1, Aspergillus fumigatus): 1.5 µg/mL; A fu MFC ([3]; Table 1, Aspergillus fumigatus): — ((-) = >20 μg/mL); A fu MIC ([3]; Table 1, Aspergillus fumigatus): 5.0 µg/mL; MRS IC50 (MRSA; Table 1): 0.85 µg/mL; MRS MFC (MRSA; Table 1): 10 µg/mL; MRS MIC (MRSA; Table 1): 2.5 µg/mL; TC50 Vero Cells (Vero Cells; Table 1): NC (NC = Not toxic at 10 μg/mL)
C[n+]1cc2c(c3ccc(Cl)cc3n2CCCCCC2CCCCC2)c2ccccc21.[I-] [JRE-3-84-1] | 2.5 µg/mL |  |  |  |  |  |  |  | 5.0 µg/mL |  |  |  |  | 0.70 µg/mL | 2.5 µg/mL | 1.3 µg/mL | 0.80 µg/mL | 2.5 µg/mL | 1.3 µg/mL | 1.5 µg/mL | MRSA IC50 (MRSA; Table 3): 0.80 µg/mL; MRSA MFC (MRSA; Table 3): 1.3 µg/mL; MRSA MIC (MRSA; Table 3): 1.3 µg/mL; TC50 Vero Cells (Vero Cells; Table 3): >10 µg/mL
Clc1ccc2c(c1)[nH]c1c[n+](CCCCCC3CCCCC3)c3ccccc3c12.[I-] [JRE-3-10-1] |  |  |  |  |  |  |  |  |  |  |  |  |  | >20 µg/mL | — ((-) = >20 μg/mL) | — ((-) = >20 μg/mL) | >20 µg/mL | — ((-) = >20 μg/mL) | — ((-) = >20 μg/mL) | >20 µg/mL | MRSA IC50 (MRSA; Table 3): 5.0 µg/mL; MRSA MFC (MRSA; Table 3): — ((-) = >20 μg/mL); MRSA MIC (MRSA; Table 3): 25 µg/mL; TC50 Vero Cells (Vero Cells; Table 3): 9.3 µg/mL
C[n+]1cc2c(c3ccc(C(F)(F)F)cc3n2CCCCCC2CCCCC2)c2ccccc21.[I-] [JRE-5-31-1] | 5.0 µg/mL |  |  |  |  |  |  |  | 10 µg/mL |  |  |  |  | 0.80 µg/mL | — ((-) = >20 μg/mL) | 1.3 µg/mL | 0.85 µg/mL | 2.5 µg/mL | 1.3 µg/mL | 1.5 µg/mL | MRSA IC50 (MRSA; Table 3): 0.70 µg/mL; MRSA MFC (MRSA; Table 3): 1.3 µg/mL; MRSA MIC (MRSA; Table 3): 1.3 µg/mL; TC50 Vero Cells (Vero Cells; Table 3): >10 µg/mL
